According to US6632831B2, “Branched chain amino acid-dependent aminotransferase inhibitors and their use in the treatment of neurodegenerative diseases” (Pfizer Inc., priority 2001, dated 2003):
Several values for one entry are separate records, joined by “and”; a condition that tells them apart may be missing. Equal values may be shown once.

Assays:
[1] = biological target: T1, human Branched Chain Amino Acid Aminotransferase cytosolic form (hBCATc) (Homo sapiens, UniProt P54687); test: In vitro coupled enzyme assay, hBCATc; assay type: biochemical; settings: 37° C.; for IC50: 25 mM phosphate buffer pH 7.8, coupled glutamate dehydrogenase assay, read-out: hBCATc I50; for inhibition at 20 µM: read-out: hBCATc Inhibit % @ 20 μM
T1 construct: inferred from purification on a Ni-charged chelating column with imidazole elution; made in house; host or cells: E. coli BL21(DE3)
T1 sequence (P54687 1-386): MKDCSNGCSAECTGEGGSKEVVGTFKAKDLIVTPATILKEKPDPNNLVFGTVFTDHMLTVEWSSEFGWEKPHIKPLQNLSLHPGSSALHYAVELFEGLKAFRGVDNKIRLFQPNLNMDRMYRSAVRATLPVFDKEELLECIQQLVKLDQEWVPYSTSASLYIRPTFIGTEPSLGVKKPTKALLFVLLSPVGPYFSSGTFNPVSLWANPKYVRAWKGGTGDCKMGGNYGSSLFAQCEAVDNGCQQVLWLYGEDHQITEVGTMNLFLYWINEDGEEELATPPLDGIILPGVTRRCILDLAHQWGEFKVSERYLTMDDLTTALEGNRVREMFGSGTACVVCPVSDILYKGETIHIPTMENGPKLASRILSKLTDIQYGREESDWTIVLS
Method: In vitro enzyme assay—human Branched Chain Amino Acid Aminotransferase cytosolic form (hBCATc) and mitochondrial form (hBCATm) were assayed at 37° C. in 25 mM phosphate buffer pH 7.8. In addition, 2 mM DTT and 12.5 mM EDTA were added to the assay mixture. A coupling enzyme assay was used to monitor the production of glutamate. The formation of NADH from NAD+at […] was followed on a 96-well plate Molecular Devices plate reader. The following components were used in this coupled assay: 4 mM ADP, 1 mM NAD+, 750 μM L-Leucine, 500 μM (α-ketoglutarate, 10 μM pyridoxal phosphate, 1 unit glutamate dehydrogenase, and 1.25 μg of the appropriate BCAT enzyme. Inhibitions by compounds were assayed by adding various concentrations to this coupled assay procedure as a DMSO stock up to a 5% v/v DMSO/buffer ratio. Data is shown in Table 1.
Enzyme Preparation—humanBCATc was expressed in BL21(DE3) cells. A growing culture of cells was induced with 1 mM IPTG at room temperature overnight. These cells were harvested by centrifugation at 10,000 g for 20 minutes. The supernatant was discarded, and the cells were stored at −80° C. until needed. The protein was purified by the following method. The cell paste was resuspended in extraction buffer (0.1 M phosphate, pH 8.0, with 0.01 M Tris-HCL and 5 mM TCEP and then lysed on a French Press at 1000 psi. The lysate was centrifuged at 10,000 g for 15 minutes, and the pellet was discarded. The supernatant was loaded onto a Hitrap Chelating column previously charged with 0.1 M NiSO4 and washed with 3 to 4 column volumes of extraction buffer. The column was then washed with 0.01 Tris, pH 7.5, 10% glycerol, 150 mM NaCl, 5 mM TCEP for two column volumes. The column was then further washed with two column volumes of 0.1 M phosphate, pH 6.0, 0.01 M Tris, 10% glycerol and 750 mM NaCl. Finally, the column was washed with two column volumes of the same buffer plus 50 mM imidazole. The BCAT enzyme was then eluted with the same buffer but with 350 mM imidazole. The eluant was then dialyzed overnight against 10 mM phosphate buffer pH 8.0, 10% glycerol, and 5 mM TCEP. The dialyzed protein was then loaded onto a Q-sepharose column and eluted using a salt gradient. Active fractions were collected and further purified on a Superose-12 column to yield pure BCAT protein.

[2] = @ 20 μM compound, pH 7.8 coupled assay

## COC(=O)/C=C1\SC(Nc2c(Cl)cccc2Cl)=NC1=O (hydrate or solvate) [Example 1, [2-(2,6-Dichloro-phenylamino)-4-oxo-4H-thiazol-5-ylidene]-acetic Acid Methyl Ester]
other
  melting point: 189.1 to 189.7 °C

## CCOC(=O)/C=C1\SC(Nc2c(Cl)cccc2Cl)=NC1=O (hydrate or solvate) [Example 2, [2-(2,6-Dichloro-phenylamino)-4-oxo-4H-thiazol-5-ylidene]-acetic Acid Ethyl Ester]
other
  melting point: 185 to 185.8 °C

## CC(C)(C)OC(=O)/C=C1\SC(Nc2c(Cl)cccc2Cl)=NC1=O (hydrate or solvate) [Example 3, [2-(2,6-Dichloro-phenylamino)-4-oxo-4H-thiazol-5-ylidene]-acetic Acid Tert-butyl Ester]
other
  melting point: > 230 °C

## COC(=O)/C=C1\SC(Nc2ccccc2C)=NC1=O (hydrate or solvate) [Example 4, [2-(2-Methyl-phenylamino)-4-oxo-4H-thiazol-5-ylidene]-acetic Acid Methyl Ester]
other
  melting point: 200.7 to 201.2 °C

## CNC(=O)/C=C1\SC(Nc2c(Cl)cccc2Cl)=NC1=O (hydrate or solvate) [Example 6, [2-(2,6-Dichloro-phenylamino)-4-oxo-4H-thiazol-5-ylidene]-N-methyl-acetamide]
other
  melting point: > 230 °C

## CCNC(=O)/C=C1\SC(Nc2c(Cl)cccc2Cl)=NC1=O (hydrate or solvate) [Example 7, [2-(2,6-Dichloro-phenylamino)-4-oxo-4H-thiazol-5-ylidene]-N-ethyl-acetamide]
other
  melting point: > 250 °C

## CCCNC(=O)/C=C1\SC(Nc2c(Cl)cccc2Cl)=NC1=O (hydrate or solvate) [Example 8, [2-(2,6-Dichloro-phenylamino)-4-oxo-4H-thiazol-5-ylidene]-N-propyl-acetamide]
other
  melting point: > 230 °C

## CONC(=O)/C=C1\SC(Nc2c(Cl)cccc2Cl)=NC1=O (hydrate or solvate) [Example 10, [2-(2,6-Dichloro-phenylamino)-4-oxo-4H-thiazol-5-ylidene]-N-methoxy-acetamide]
other
  melting point: 204.8 to 205.6 °C

## O=C(O)/C=C1\SC(Nc2c(Cl)cccc2Cl)=NC1=O [Example 5, [2-(2,6-Dichloro-phenylamino)-4-oxo-4H-thiazol-5-ylidene]-acetic Acid]
[1]
  IC50: 18.6 µM and 13.1 µM
other
  melting point: > 230 °C

## O=C(/C=C1\SC(Nc2c(Cl)cccc2Cl)=NC1=O)NCc1ccccc1 [Example 9, [2-(2,6-Dichloro-phenylamino)-4-oxo-4H-thiazol-5-ylidene]-N-benzyl-acetamide]
[1]
  IC50: 33 µM and 24 µM
other
  melting point: 204.8 to 205.6 °C

## COC(=O)/C=C1\SC(Nc2ccc(Cl)cc2Cl)=NC1=O [Example 11, [2-(2,4-Dichloro-phenylamino)-4-oxo-4H-thiazol-5-ylidene]-acetic Acid Methyl Ester]
[1]
  IC50: 30.1 µM
other
  melting point: 211.6 to 212.3 °C

## COC(=O)/C=C1\SC(Nc2cc(Cl)ccc2Cl)=NC1=O [Example 12, [2-(2,5-Dichloro-phenylamino)-4-oxo-4H-thiazol-5-ylidene]-acetic Acid Methyl Ester]
[1]
  IC50: 27.6 µM
other
  melting point: 198.8 to 199.4 °C

## COC(=O)/C=C1\SC(Nc2cccc(Cl)c2Cl)=NC1=O [Example 13, [2-(2,3-Dichloro-phenylamino)-4-oxo-4H-thiazol-5-ylidene]-acetic Acid Methyl Ester]
[1]
  IC50: 18.7 µM
other
  melting point: 204 to 204.3 °C

## COC(=O)/C=C1\SC(Nc2c(Cl)cc(Cl)cc2Cl)=NC1=O [Example 14, [2-(2,4,6-Trichloro-phenylamino)-4-oxo-4H-thiazol-5-ylidene]-acetic Acid Methyl Ester]
[1]
  IC50: 16.6 µM
other
  melting point: 241.3 to 241.7 °C

## CN(C)C1CCN(C(=O)/C=C2\SC(Nc3c(Cl)cccc3Cl)=NC2=O)C1 (centres unmarked) [Example 25, 2-(2,6-Dichloro-phenylamino)-5-[2-(3-dimethylamino-pyrrolidin-1-yl)-2-oxo-ethylidene)-thiazol-4-one]
[1]
  IC50: 65.1 µM

## O=C(/C=C1\SC(Nc2c(Cl)cccc2Cl)=NC1=O)NCCOCCO [Example 26, 2-[2-(2,6-Dichloro-phenylamino)-4-oxo-4H-thiazol-5-ylidene]-N-[2-(2-hydroxy-ethoxy)-ethyl]-acetamide]
[1]
  IC50: 56.3 µM

## CSCCCNC(=O)/C=C1\SC(Nc2c(Cl)cccc2Cl)=NC1=O [Example 27, 2-[2-(2,6-Dichloro-phenylamino)-4-oxo-4H-thiazol-5-ylidene]-N-(3-methylsulfanyl-propyl)-acetamide]
[1]
  IC50: 41.2 µM

## O=C(/C=C1\SC(Nc2c(Cl)cccc2Cl)=NC1=O)NCC(O)CO (centres unmarked) [Example 28, 2-[2-(2,6-Dichloro-phenylamino)-4-oxo-4H-thiazol-5-ylidene]-N-(2,3-dihydroxy-propyl)-acetamide]
[1]
  IC50: 66.9 µM

## C=C(C)CNC(=O)/C=C1\SC(Nc2c(Cl)cccc2Cl)=NC1=O [Example 29, 2-[2-(2,6-Dichloro-phenylamino)-4-oxo-4H-thiazol-5-ylidene]-N-(2-methyl-allyl)-acetamide]
[1]
  IC50: 31.1 µM

## O=C(/C=C1\SC(Nc2c(Cl)cccc2Cl)=NC1=O)NC1CCCC1 [Example 30, N-Cyclopentyl-2-[2-(2,6-dichloro-phenylamino)-4-oxo-4H-thiazol-5-ylidene]-acetamide]
[1]
  IC50: 16.6 µM

## CCCN(CC1CC1)C(=O)/C=C1\SC(Nc2c(Cl)cccc2Cl)=NC1=O [Example 31, N-Cyclopropylmethyl-2-[2-(2,6-dichloro-phenylamino)-4-oxo-4H-thiazol-5-ylidene]-N-propyl-acetamide]
[1]
  IC50: 11.2 µM

## CN1CCC(N(C)C(=O)/C=C2\SC(Nc3c(Cl)cccc3Cl)=NC2=O)C1 (centres unmarked) [Example 32, 2-[2-(2,6-Dichloro-phenylamino)-4-oxo-4H-thiazol-5-ylidene]-N-methyl-N-(1-methyl-pyrrolidin-3-yl)-acetamide]
[1]
  IC50: 89.8 µM

## O=C(/C=C1\SC(Nc2c(Cl)cccc2Cl)=NC1=O)NCCOc1ccccc1 [Example 33, 2-[2-(2,6-Dichloro-phenylamino)-4-oxo-4H-thiazol-5-ylidene]-N-(2-phenoxy-ethyl)-acetamide]
[1]
  IC50: 40.4 µM

## CNCCCCCCCCN(C)C(=O)/C=C1\SC(Nc2c(Cl)cccc2Cl)=NC1=O [Example 34, 2-[2-(2,6-Dichloro-phenylamino)-4-oxo-4H-thiazol-5-ylidene]-N-methyl-N-(8-methylamino-octyl)-acetamide]
[1]
  IC50: 75.6 µM

## O=C(/C=C1\SC(Nc2c(Cl)cccc2Cl)=NC1=O)NCc1ccc(Cl)cc1 [Example 35, N-(4-Chloro-benzyl)-2-[2-(2,6-dichloro-phenylamino)-4-oxo-4H-thiazol-5-ylidene]-acetamide]
[1]; [2]
  inhibition at 20 µM: 130%

## CC(C)CCC(C)NC(=O)/C=C1\SC(Nc2c(Cl)cccc2Cl)=NC1=O (centres unmarked) [Example 37, 2-[2-(2,6-Dichloro-phenylamino)-4-oxo-4H-thiazol-5-ylidene]-N-(1,4-dimethyl-pentyl)-acetamide]
[1]; [2]
  inhibition at 20 µM: 34%

## CC(C)CC(C)NC(=O)/C=C1\SC(Nc2c(Cl)cccc2Cl)=NC1=O (centres unmarked) [Example 38, 2-[2-(2,6-Dichloro-phenylamino)-4-oxo-4H-thiazol-5-ylidene]-N-(1 ,3-dimethyl-butyl)-acetamide]
[1]; [2]
  inhibition at 20 µM: 33%

## O=C(/C=C1\SC(Nc2c(Cl)cccc2Cl)=NC1=O)NC1CCCCCC1 [Example 39, N-Cycloheptyl-2-[2-(2,6-dichloro-phenylamino)-4-oxo-4H-thiazol-5-ylidene]-acetamide]
[1]; [2]
  inhibition at 20 µM: 39%

## N-(1-Benzyl-pyrrolidin-3-yl)-2-[2-(2,6-dichloro-phenylamino)-4-oxo-4H-thiazol-5-ylidene]-N-methyl-acetamide [Example 36]
[1]; [2]
  hBCATc Inhibit % @ 20 μM: Inhibit 29% @ 20 μM
